According to PubChem BioAssay AID330 (DTP/NCI, 2004):
Several values for one entry are separate records, joined by “and”; a condition that tells them apart may be missing. Equal entries are not always repeated. Toxic doses and inconclusive results are not listed. Peptide text beside a SMILES is read from it. * marks the point of attachment. Cbz = O=C(OCc1ccccc1)*

Test system: P388 leukemia ip, CD2F1 mice, survival T/C
Assay: NCI In Vivo Anticancer Drug Screen. Data for tumor model P388 Leukemia (intraperitoneal) in CD2F1 (CDF1) mice
Conditions: endpoint: median survival time, higher = longer survival
Summary of the method: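 Mice carrying the transplanted tumor received test compound or vehicle. Survival was recorded in each group, and the value is the treated-group measurement divided by that of the vehicle-treated control group.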

[1] = dose: 60.0 mg/kg/injection, schedule: Q01DX005 (ip), vehicle: saline
[2] = dose: 120.0 mg/kg/injection, schedule: Q01DX005 (ip), vehicle: saline
[3] = dose: 240.0 mg/kg/injection, schedule: Q01DX005 (ip), vehicle: saline
[4] = dose: 50.0 mg/kg/injection, schedule: Q01DX005 (ip), vehicle: saline with Tween-80
[5] = dose: 100.0 mg/kg/injection, schedule: Q01DX005 (ip), vehicle: saline with Tween-80
[6] = dose: 200.0 mg/kg/injection, schedule: Q01DX005 (ip), vehicle: saline with Tween-80
[7] = dose: 50.0 mg/kg/injection, schedule: Q01DX009 (ip), vehicle: Klucel (hydroxypropylcellulose) (HPC)
[8] = dose: 100.0 mg/kg/injection, schedule: Q01DX009 (ip), vehicle: Klucel (hydroxypropylcellulose) (HPC)
[9] = dose: 25.0 mg/kg/injection, schedule: Q04DX002 (ip), vehicle: saline with Tween-80
[10] = dose: 50.0 mg/kg/injection, schedule: Q01DX009 (ip), vehicle: saline
[11] = dose: 100.0 mg/kg/injection, schedule: Q01DX009 (ip), vehicle: saline
[12] = dose: 200.0 mg/kg/injection, schedule: Q01DX009 (ip), vehicle: saline

Compound: O=[As]O
- T/C (dose: 0.5 mg/kg/injection, schedule: Q01DX010 (ip), vehicle: saline with Tween-80): 100 % of control
- T/C (dose: 1.0 mg/kg/injection, schedule: Q01DX010 (ip), vehicle: saline with Tween-80): 109 % of control
- T/C (dose: 2.0 mg/kg/injection, schedule: Q01DX010 (ip), vehicle: saline with Tween-80): 109 % of control

Compound: CCc1cc(-c2cc(CC)[nH]n2)n[nH]1
- T/C [1]: 100 % of control
- T/C [2]: 97 % of control
- T/C [3]: 95 % of control

Compound: Cc1cc(CCN)c(C)c2c1oc1ccccc12
- T/C (dose: 25.0 mg/kg/injection, schedule: Q04DX003 (ip), vehicle: Klucel (hydroxypropylcellulose) (HPC)): 103 % of control
- T/C (dose: 50.0 mg/kg/injection, schedule: Q04DX003 (ip), vehicle: Klucel (hydroxypropylcellulose) (HPC)): 99 % of control
- T/C (dose: 100.0 mg/kg/injection, schedule: Q04DX003 (ip), vehicle: Klucel (hydroxypropylcellulose) (HPC)): 100 % of control
- T/C (dose: 200.0 mg/kg/injection, schedule: Q04DX003 (ip), vehicle: Klucel (hydroxypropylcellulose) (HPC)): 105 % of control

Compound: CC(C)C(NC(=O)C(Cc1cnc[nH]1)NC(=O)OCc1ccccc1)C(=O)O (stereo not drawn) (Cbz-His-Val-OH; configuration not given here)
- T/C (dose: 50.0 mg/kg/injection, schedule: Q01DX005 (ip), vehicle: Klucel (hydroxypropylcellulose) (HPC)): 101 % of control
- T/C (dose: 100.0 mg/kg/injection, schedule: Q01DX005 (ip), vehicle: Klucel (hydroxypropylcellulose) (HPC)): 96 % of control
- T/C (dose: 200.0 mg/kg/injection, schedule: Q01DX005 (ip), vehicle: Klucel (hydroxypropylcellulose) (HPC)): 100 % of control

Compound: Cc1cc(OCCCCCCC[N+](C)(C)Cc2ccc([N+](=O)[O-])o2)c(C(C)C)cc1Cl
- T/C (dose: 12.5 mg/kg/injection, schedule: Q04DX003 (ip), vehicle: saline): 99 % of control
- T/C (dose: 25.0 mg/kg/injection, schedule: Q04DX003 (ip), vehicle: saline): 92 % of control

Compound: CCC(=O)N1C(=O)C(C)C23c4ccccc4C(=O)N2CCCN13 (stereo not drawn)
- T/C [4]: 97 % of control
- T/C [5]: 96 % of control
- T/C [6]: 96 % of control

Compound: CCCCC1NNC(CCCC)NN1 (stereo not drawn)
- T/C [7]: 104 % of control
- T/C [8]: 104 % of control

Compound: [C-]#[O+].[Cl][Ru]([Cl])([Cl])([Cl])[Cl]
- T/C (dose: 12.5 mg/kg/injection, schedule: Q04DX003 (ip), vehicle: water): 108 % of control
- T/C (dose: 25.0 mg/kg/injection, schedule: Q04DX003 (ip), vehicle: water): 96 % of control
- T/C (dose: 50.0 mg/kg/injection, schedule: Q04DX003 (ip), vehicle: water): 105 % of control

Compound: CC(=O)/C=C(\C)NCCN/C(C)=C/C(C)=O
- T/C [1]: 101 % of control
- T/C [2]: 98 % of control
- T/C [3]: 98 % of control

Compound: O=c1[nH]c2c([N+](=O)[O-])cc(Cl)cc2nc1/C=C(\O)c1ccc(Cl)cc1
- T/C (dose: 30.0 mg/kg/injection, schedule: Q01DX005 (ip), vehicle: Klucel (hydroxypropylcellulose) (HPC)): 99 % of control
- T/C (dose: 60.0 mg/kg/injection, schedule: Q01DX005 (ip), vehicle: Klucel (hydroxypropylcellulose) (HPC)): 100 % of control
- T/C (dose: 120.0 mg/kg/injection, schedule: Q01DX005 (ip), vehicle: Klucel (hydroxypropylcellulose) (HPC)): 99 % of control and 108 % of control
- T/C (dose: 240.0 mg/kg/injection, schedule: Q01DX005 (ip), vehicle: Klucel (hydroxypropylcellulose) (HPC)): 105 % of control

Compound: CCn1c2nc(=O)n(C)c(=O)c-2[n+]([O-])c2cc(Br)ccc21
- T/C (dose: 6.25 mg/kg/injection, schedule: Q04DX002 (ip), vehicle: saline with Tween-80): 100 % of control
- T/C (dose: 12.5 mg/kg/injection, schedule: Q04DX002 (ip), vehicle: saline with Tween-80): 96 % of control
- T/C [9]: 89 % of control and 92 % of control

Compound: CCCCCCCCCCCCCCCC(CCCC)CCCCCC (stereo not drawn)
- T/C (dose: 50.0 mg/kg/injection, schedule: Q01DX001 (ip), vehicle: saline sonified): 100 % of control
- T/C (dose: 100.0 mg/kg/injection, schedule: Q01DX001 (ip), vehicle: saline sonified): 100 % of control
- T/C (dose: 200.0 mg/kg/injection, schedule: Q01DX001 (ip), vehicle: saline sonified): 100 % of control

Compound: C[N+]1(C)CC=CCC1c1ccccc1 (stereo not drawn)
- T/C (dose: 6.25 mg/kg/injection, schedule: Q01DX005 (ip), vehicle: saline): 104 % of control
- T/C (dose: 12.5 mg/kg/injection, schedule: Q01DX005 (ip), vehicle: saline): 105 % of control
- T/C (dose: 25.0 mg/kg/injection, schedule: Q01DX005 (ip), vehicle: saline): 98 % of control

Compound: COC1/C=C/OC2(C)Oc3c(C)c(O)c4c(O)c(c(/C=N/Nc5nc6c(N)ncnc6n5C5OC(CO)C(O)C5O)c(O)c4c3C2=O)NC(=O)C(C)=C/C=C/C(C)C(O)C(C)C(O)C(C)C(OC(C)=O)C1C (stereo not drawn)
- T/C (dose: 50.0 mg/kg/injection, schedule: Q01DX009 (ip), vehicle: saline with Tween-80): 104 % of control
- T/C (dose: 100.0 mg/kg/injection, schedule: Q01DX009 (ip), vehicle: saline with Tween-80): 99 % of control
- T/C (dose: 200.0 mg/kg/injection, schedule: Q01DX009 (ip), vehicle: saline with Tween-80): 113 % of control

Compound: COc1cc2c(c(OC)c1OC)-c1ccc(=O)c(OC)cc1C=CC2
- T/C (dose: 2.5 mg/kg/injection, schedule: Q01DX009 (ip), vehicle: Klucel (hydroxypropylcellulose) (HPC)): 100 % of control
- T/C (dose: 5.0 mg/kg/injection, schedule: Q01DX009 (ip), vehicle: Klucel (hydroxypropylcellulose) (HPC)): 106 % of control
- T/C (dose: 10.0 mg/kg/injection, schedule: Q01DX009 (ip), vehicle: Klucel (hydroxypropylcellulose) (HPC)): 104 % of control and 108 % of control
- T/C (dose: 20.0 mg/kg/injection, schedule: Q01DX009 (ip), vehicle: Klucel (hydroxypropylcellulose) (HPC)): 103 % of control and 109 % of control
- T/C (dose: 40.0 mg/kg/injection, schedule: Q01DX009 (ip), vehicle: Klucel (hydroxypropylcellulose) (HPC)): 106 % of control and 123 % of control
- T/C (dose: 80.0 mg/kg/injection, schedule: Q01DX009 (ip), vehicle: Klucel (hydroxypropylcellulose) (HPC)): 115 % of control

Compound: OCCN(CCO)C1c2ccccc2-c2ccccc21
- T/C [4]: 98 % of control
- T/C [5]: 89 % of control
- T/C [6]: 90 % of control

Compound: COC(=O)CCC(=O)C(C#N)c1nc2ccccc2s1 (stereo not drawn)
- T/C [4]: 94 % of control
- T/C [5]: 92 % of control
- T/C [6]: 92 % of control

Compound: CCOC(=O)/C(C=NCC(C)(CN=C/C(C(=O)OCC)=C(/C)O)CN=C/C(C(=O)OCC)=C(/C)O)=C(\C)O (stereo not drawn)
- T/C [7]: 93 % of control
- T/C [8]: 90 % of control
- T/C (dose: 200.0 mg/kg/injection, schedule: Q01DX009 (ip), vehicle: Klucel (hydroxypropylcellulose) (HPC)): 87 % of control

Compound: CN=C(N)NN=C1c2ccccc2-c2ccccc21
- T/C [9]: 97 % of control
- T/C (dose: 50.0 mg/kg/injection, schedule: Q04DX002 (ip), vehicle: saline with Tween-80): 101 % of control

Compound: Nc1ccccc1CN1C(=O)CCC1=O
- T/C [10]: 105 % of control
- T/C [11]: 101 % of control
- T/C [12]: 99 % of control

Compound: COc1cc2c(c(OC)c1OC)-c1ccc(OC)c(=O)cc1[C@@H](NC(=O)c1ccc([N+](=O)[O-])cc1)CC2
- T/C (dose: 0.25 mg/kg/injection, schedule: Q01DX009 (ip), vehicle: Klucel (hydroxypropylcellulose) (HPC)): 109 % of control and 115 % of control
- T/C (dose: 0.5 mg/kg/injection, schedule: Q01DX009 (ip), vehicle: Klucel (hydroxypropylcellulose) (HPC)): 114 % of control
- T/C (dose: 0.78 mg/kg/injection, schedule: Q01DX009 (ip), vehicle: Klucel (hydroxypropylcellulose) (HPC)): 108 % of control
- T/C (dose: 1.0 mg/kg/injection, schedule: Q01DX009 (ip), vehicle: Klucel (hydroxypropylcellulose) (HPC)): 114 % of control and 124 % of control
- T/C (dose: 1.56 mg/kg/injection, schedule: Q01DX009 (ip), vehicle: Klucel (hydroxypropylcellulose) (HPC)): 112 % of control
- T/C (dose: 2.0 mg/kg/injection, schedule: Q01DX009 (ip), vehicle: Klucel (hydroxypropylcellulose) (HPC)): 124 % of control
- T/C (dose: 3.12 mg/kg/injection, schedule: Q01DX009 (ip), vehicle: Klucel (hydroxypropylcellulose) (HPC)): 160 % of control
- T/C (dose: 4.0 mg/kg/injection, schedule: Q01DX009 (ip), vehicle: Klucel (hydroxypropylcellulose) (HPC)): 166 % of control
- T/C (dose: 6.25 mg/kg/injection, schedule: Q01DX009 (ip), vehicle: Klucel (hydroxypropylcellulose) (HPC)): 198 % of control

Compound: Cc1ccc(S(=O)(=O)/C=C2\COc3ccccc3C2=O)cc1
- T/C (dose: 100.0 mg/kg/injection, schedule: Q04DX002 (ip), vehicle: saline): 100 % of control
- T/C (dose: 200.0 mg/kg/injection, schedule: Q04DX002 (ip), vehicle: saline): 100 % of control
- T/C (dose: 400.0 mg/kg/injection, schedule: Q04DX002 (ip), vehicle: saline): 97 % of control

Compound: O=CCSC(=S)NNc1ccccc1
- T/C (dose: 25.0 mg/kg/injection, schedule: Q01DX009 (ip), vehicle: saline): 103 % of control
- T/C [10]: 90 % of control
- T/C [11]: 105 % of control
- T/C [12]: 96 % of control
